From patent US20230278972A1, “SUBSTITUTED HALOALKYL SULFONANILIDE HERBICIDES” (FMC Corporation, priority 2020, published 2023)

Experiments:
Format in all cases: in vivo
[1] = system: Ryegrass, Italian (Italian ryegrass, Lolium multiflorum); assay: Test A postemergence, Ryegrass, Italian; details: Postemergence, 0 to 100 scale (0 no effect, 100 complete control); for Plant response rating, Ryegrass, Italian: 125 g ai/ha, visual injury approx. 10 days; for Ryegrass, Italian plant response rating: 500 g ai/ha, visual injury vs untreated controls after approx. 10 days
Procedure, shortened: (§1)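 Test chemicals, formulated in a non-phytotoxic solvent mixture with surfactant, were sprayed postemergence on plants 2 to 10 cm tall at the one- to two-leaf stage. Preemergence treatment was a directed soil spray onto freshly seeded pots. Both used a loam soil and sand blend.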

[2] = system: galium (catchweed bedstraw, Galium aparine); assay: Test A postemergence, galium; details: Postemergence, 0 to 100 scale (0 no effect, 100 complete control); for Plant response rating, Galium: 125 g ai/ha, visual injury approx. 10 days; for Galium plant response rating: 500 g ai/ha, visual injury vs untreated controls after approx. 10 days
Procedure, shortened: (§2)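 Formulated with a surfactant in a non-phytotoxic solvent, compounds are applied to loam–sand pots, either to bare soil immediately after seeding (preemergence) or to seedlings of 2 to 10 cm bearing one to two leaves (postemergence).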

corn (Zea mays) = assay: Test A postemergence, corn; details: Postemergence, 0 to 100 scale (0 no effect, 100 complete control); for Plant response rating, Corn: 125 g ai/ha, visual injury approx. 10 days; for Corn plant response rating: 500 g ai/ha, visual injury vs untreated controls after approx. 10 days
Procedure, shortened: as §1

kochia (Bassia scoparia) [3] = assay: Test A preemergence, kochia; details: Preemergence; for Kochia plant response rating: 125 g ai/ha, visual injury on 0 to 100 scale (0 no effect, 100 complete control), approximately 10 days; for Plant response rating, Kochia: 500 g ai/ha, 0 to 100 scale (0 no effect, 100 complete control)
Procedure, shortened: as §1

[4] = system: barnyardgrass (Echinochloa crus-galli); assay: Test A preemergence, barnyardgrass; details: Preemergence; for Barnyardgrass plant response rating: 125 g ai/ha, visual injury on 0 to 100 scale (0 no effect, 100 complete control), approximately 10 days; for Plant response rating, Barnyardgrass: 500 g ai/ha, 0 to 100 scale (0 no effect, 100 complete control)
Procedure, shortened: as §1

[5] = system: Foxtail, Giant (giant foxtail, Setaria faberi); assay: Test A preemergence, Foxtail, Giant; details: Preemergence; for Foxtail, Giant plant response rating: 125 g ai/ha, visual injury on 0 to 100 scale (0 no effect, 100 complete control), approximately 10 days; for Plant response rating, Foxtail, Giant: 500 g ai/ha, 0 to 100 scale (0 no effect, 100 complete control)
Procedure, shortened: as §1

[6] = system: blackgrass (Alopecurus myosuroides); assay: Test A postemergence, blackgrass; details: Postemergence, 0 to 100 scale (0 no effect, 100 complete control); for Plant response rating, Blackgrass: 125 g ai/ha, visual injury approx. 10 days; for Blackgrass plant response rating: 500 g ai/ha, visual injury vs untreated controls after approx. 10 days
Procedure, shortened: as §1

[7] = system: ragweed (common ragweed, Ambrosia artemisiifolia); assay: Test A preemergence, ragweed; details: Preemergence; for Ragweed plant response rating: 125 g ai/ha, visual injury on 0 to 100 scale (0 no effect, 100 complete control), approximately 10 days; for Plant response rating, Ragweed: 500 g ai/ha, 0 to 100 scale (0 no effect, 100 complete control)
Procedure, shortened: as §1

[8] = system: barnyardgrass (Echinochloa crus-galli); assay: Test A postemergence, barnyardgrass; details: Postemergence, 0 to 100 scale (0 no effect, 100 complete control); for Plant response rating, Barnyardgrass: 125 g ai/ha, visual injury approx. 10 days; for Barnyardgrass plant response rating: 500 g ai/ha, visual injury vs untreated controls after approx. 10 days
Procedure, shortened: as §2

[9] = system: wheat (Triticum aestivum); assay: Test A postemergence, wheat; details: Postemergence, 0 to 100 scale (0 no effect, 100 complete control); for Plant response rating, Wheat: 125 g ai/ha, visual injury approx. 10 days; for Wheat plant response rating: 500 g ai/ha, visual injury vs untreated controls after approx. 10 days
Procedure, shortened: as §2

kochia (Bassia scoparia) [10] = assay: Test A postemergence, kochia; details: Postemergence, 0 to 100 scale (0 no effect, 100 complete control); for Plant response rating, Kochia: 125 g ai/ha, visual injury approx. 10 days; for Kochia plant response rating: 500 g ai/ha, visual injury vs untreated controls after approx. 10 days
Procedure, shortened: as §1

[11] = system: ragweed (common ragweed, Ambrosia artemisiifolia); assay: Test A postemergence, ragweed; details: Postemergence, 0 to 100 scale (0 no effect, 100 complete control); for Plant response rating, Ragweed: 125 g ai/ha, visual injury approx. 10 days; for Ragweed plant response rating: 500 g ai/ha, visual injury vs untreated controls after approx. 10 days
Procedure, shortened: as §1

[12] = system: pigweed (Amaranthus retroflexus); assay: Test A preemergence, pigweed; details: for Pigweed plant response rating: 125 g ai/ha, visual injury on 0 to 100 scale (0 no effect, 100 complete control), approximately 10 days; for Plant response rating, Pigweed: 500 g ai/ha, 0 to 100 scale (0 no effect, 100 complete control)
Procedure, shortened: as §2

[13] = system: Foxtail, Giant (giant foxtail, Setaria faberi); assay: Test A postemergence, Foxtail, Giant; details: Postemergence, 0 to 100 scale (0 no effect, 100 complete control); for Plant response rating, Foxtail, Giant: 125 g ai/ha, visual injury approx. 10 days; for Foxtail, Giant plant response rating: 500 g ai/ha, visual injury vs untreated controls after approx. 10 days
Procedure, shortened: as §1

[14] = system: pigweed (Amaranthus retroflexus); assay: Test A postemergence, pigweed; details: Postemergence, 0 to 100 scale (0 no effect, 100 complete control); for Plant response rating, Pigweed: 125 g ai/ha, visual injury approx. 10 days; for Pigweed plant response rating: 500 g ai/ha, visual injury vs untreated controls after approx. 10 days
Procedure, shortened: as §1

[15] = system: Ryegrass, Italian (Italian ryegrass, Lolium multiflorum); assay: Test A preemergence, Ryegrass, Italian; details: Preemergence; for Ryegrass, Italian plant response rating: 125 g ai/ha, visual injury on 0 to 100 scale (0 no effect, 100 complete control), approximately 10 days; for Plant response rating, Ryegrass, Italian: 500 g ai/ha, 0 to 100 scale (0 no effect, 100 complete control)
Procedure, shortened: as §1

Compound: COC(=O)N(c1cc(-c2ccnn(C)c2=O)c(C)cc1C)S(=O)(=O)C(F)(F)F [Compound 53]
- Plant response rating, Ryegrass, Italian [1]: 0
- Ryegrass, Italian plant response rating [1]: 0
- Plant response rating, Galium [2]: 50
- Galium plant response rating [2]: 80
- Plant response rating, Corn (corn (Zea mays)): 0
- Corn plant response rating (corn (Zea mays)): 0
- Kochia plant response rating (kochia (Bassia scoparia) [3]): 0
- Plant response rating, Kochia (kochia (Bassia scoparia) [3]): 0
- Barnyardgrass plant response rating [4]: 0
- Plant response rating, Barnyardgrass [4]: 0
- Foxtail, Giant plant response rating [5]: 0
- Plant response rating, Foxtail, Giant [5]: 0
- Plant response rating, Blackgrass [6]: 0
- Blackgrass plant response rating [6]: 0
- Ragweed plant response rating [7]: 0
- Plant response rating, Ragweed [7]: 40
- Plant response rating, Barnyardgrass [8]: 0
- Barnyardgrass plant response rating [8]: 0
- Plant response rating, Wheat [9]: 0
- Wheat plant response rating [9]: 0
- Plant response rating, Kochia (kochia (Bassia scoparia) [10]): 0
- Kochia plant response rating (kochia (Bassia scoparia) [10]): 0
- Plant response rating, Ragweed [11]: 20
- Ragweed plant response rating [11]: 20
- Pigweed plant response rating [12]: 0
- Plant response rating, Pigweed [12]: 0
- Plant response rating, Foxtail, Giant [13]: 0
- Foxtail, Giant plant response rating [13]: 0
- Plant response rating, Pigweed [14]: 0
- Pigweed plant response rating [14]: 0
- Ryegrass, Italian plant response rating [15]: 0
- Plant response rating, Ryegrass, Italian [15]: 0

Compound: COc1cnn(-c2cc(NS(=O)(=O)C(F)(F)F)c(C)cc2C)c(=O)c1 [Compound 54]
- Plant response rating, Ryegrass, Italian [1]: 40
- Ryegrass, Italian plant response rating [1]: 40
- Plant response rating, Galium [2]: 60
- Galium plant response rating [2]: 90
- Plant response rating, Corn (corn (Zea mays)): 0
- Corn plant response rating (corn (Zea mays)): 10
- Kochia plant response rating (kochia (Bassia scoparia) [3]): 60
- Plant response rating, Kochia (kochia (Bassia scoparia) [3]): 90
- Barnyardgrass plant response rating [4]: 0
- Plant response rating, Barnyardgrass [4]: 0
- Foxtail, Giant plant response rating [5]: 0
- Plant response rating, Foxtail, Giant [5]: 10
- Plant response rating, Blackgrass [6]: 0
- Blackgrass plant response rating [6]: 0
- Ragweed plant response rating [7]: 50
- Plant response rating, Ragweed [7]: 90
- Plant response rating, Barnyardgrass [8]: 0
- Barnyardgrass plant response rating [8]: 10
- Plant response rating, Wheat [9]: 0
- Wheat plant response rating [9]: 0
- Plant response rating, Kochia (kochia (Bassia scoparia) [10]): 60
- Kochia plant response rating (kochia (Bassia scoparia) [10]): 80
- Plant response rating, Ragweed [11]: 80
- Ragweed plant response rating [11]: 90
- Pigweed plant response rating [12]: 40
- Plant response rating, Pigweed [12]: 90
- Plant response rating, Foxtail, Giant [13]: 0
- Foxtail, Giant plant response rating [13]: 0
- Plant response rating, Pigweed [14]: 40
- Pigweed plant response rating [14]: 70
- Ryegrass, Italian plant response rating [15]: 0
- Plant response rating, Ryegrass, Italian [15]: 20

Compound: CCn1nccc(-c2cc(NS(=O)(=O)C(F)(F)F)c(C)cc2F)c1=O [Compound 55]
- Plant response rating, Ryegrass, Italian [1]: 50
- Ryegrass, Italian plant response rating [1]: 60
- Plant response rating, Galium [2]: 90
- Galium plant response rating [2]: 90
- Plant response rating, Corn (corn (Zea mays)): 0
- Corn plant response rating (corn (Zea mays)): 50
- Kochia plant response rating (kochia (Bassia scoparia) [3]): 80
- Plant response rating, Kochia (kochia (Bassia scoparia) [3]): 80
- Barnyardgrass plant response rating [4]: 0
- Plant response rating, Barnyardgrass [4]: 100
- Foxtail, Giant plant response rating [5]: 60
- Plant response rating, Foxtail, Giant [5]: 100
- Plant response rating, Blackgrass [6]: 0
- Blackgrass plant response rating [6]: 20
- Ragweed plant response rating [7]: 20
- Plant response rating, Ragweed [7]: 90
- Plant response rating, Barnyardgrass [8]: 30
- Barnyardgrass plant response rating [8]: 40
- Plant response rating, Wheat [9]: 20
- Wheat plant response rating [9]: 70
- Plant response rating, Kochia (kochia (Bassia scoparia) [10]): 60
- Kochia plant response rating (kochia (Bassia scoparia) [10]): 80
- Plant response rating, Ragweed [11]: 20
- Ragweed plant response rating [11]: 40
- Pigweed plant response rating [12]: 70
- Plant response rating, Pigweed [12]: 90
- Plant response rating, Foxtail, Giant [13]: 20
- Foxtail, Giant plant response rating [13]: 90
- Plant response rating, Pigweed [14]: 20
- Pigweed plant response rating [14]: 70
- Ryegrass, Italian plant response rating [15]: 70
- Plant response rating, Ryegrass, Italian [15]: 90

Compound: CC(=O)N(c1cc(-c2ccnn(C)c2=O)c(C)cc1C)S(=O)(=O)C(F)(F)F [Compound 56]
- Plant response rating, Ryegrass, Italian [1]: 0
- Ryegrass, Italian plant response rating [1]: 80
- Plant response rating, Galium [2]: 90
- Galium plant response rating [2]: 90
- Plant response rating, Corn (corn (Zea mays)): 10
- Corn plant response rating (corn (Zea mays)): 80
- Kochia plant response rating (kochia (Bassia scoparia) [3]): 40
- Plant response rating, Kochia (kochia (Bassia scoparia) [3]): 100
- Barnyardgrass plant response rating [4]: 100
- Plant response rating, Barnyardgrass [4]: 100
- Foxtail, Giant plant response rating [5]: 0
- Plant response rating, Foxtail, Giant [5]: 20
- Plant response rating, Blackgrass [6]: 50
- Blackgrass plant response rating [6]: 50
- Ragweed plant response rating [7]: 70
- Plant response rating, Ragweed [7]: 90
- Plant response rating, Barnyardgrass [8]: 90
- Barnyardgrass plant response rating [8]: 90
- Plant response rating, Wheat [9]: 50
- Wheat plant response rating [9]: 70
- Plant response rating, Kochia (kochia (Bassia scoparia) [10]): 50
- Kochia plant response rating (kochia (Bassia scoparia) [10]): 60
- Plant response rating, Ragweed [11]: 60
- Ragweed plant response rating [11]: 90
- Pigweed plant response rating [12]: 40
- Plant response rating, Pigweed [12]: 90
- Plant response rating, Foxtail, Giant [13]: 90
- Foxtail, Giant plant response rating [13]: 90
- Plant response rating, Pigweed [14]: 40
- Pigweed plant response rating [14]: 40
- Ryegrass, Italian plant response rating [15]: 100
- Plant response rating, Ryegrass, Italian [15]: 100

Compound: Cc1cc(C)c(-c2ccnn(CC(F)(F)F)c2=O)cc1NS(=O)(=O)C(F)(F)F [Compound 57]
- Plant response rating, Ryegrass, Italian [1]: 30
- Ryegrass, Italian plant response rating [1]: 90
- Plant response rating, Galium [2]: 80
- Galium plant response rating [2]: 90
- Plant response rating, Corn (corn (Zea mays)): 30
- Corn plant response rating (corn (Zea mays)): 80
- Kochia plant response rating (kochia (Bassia scoparia) [3]): 60
- Plant response rating, Kochia (kochia (Bassia scoparia) [3]): 60
- Barnyardgrass plant response rating [4]: 100
- Plant response rating, Barnyardgrass [4]: 100
- Foxtail, Giant plant response rating [5]: 100
- Plant response rating, Foxtail, Giant [5]: 100
- Plant response rating, Blackgrass [6]: 0
- Blackgrass plant response rating [6]: 70
- Ragweed plant response rating [7]: 40
- Plant response rating, Ragweed [7]: 70
- Plant response rating, Barnyardgrass [8]: 40
- Barnyardgrass plant response rating [8]: 90
- Plant response rating, Wheat [9]: 60
- Wheat plant response rating [9]: 70
- Plant response rating, Kochia (kochia (Bassia scoparia) [10]): 0
- Kochia plant response rating (kochia (Bassia scoparia) [10]): 20
- Plant response rating, Ragweed [11]: 0
- Ragweed plant response rating [11]: 30
- Pigweed plant response rating [12]: 50
- Plant response rating, Pigweed [12]: 80
- Plant response rating, Foxtail, Giant [13]: 30
- Foxtail, Giant plant response rating [13]: 90
- Plant response rating, Pigweed [14]: 0
- Pigweed plant response rating [14]: 50
- Ryegrass, Italian plant response rating [15]: 90
- Plant response rating, Ryegrass, Italian [15]: 90
